Reference: PubChem BioAssay AID1996
≈ marks a conversion by molar mass, not a printed value.

conditions: buffer; pH 7.4; 200.0 µM

First: O=[N+]([O-])c1cc(CN2CCC(O)CC2)ccc1Cl
Second: COC(=O)/C(C#N)=C/c1ccc(N2CCOCC2)c([N+](=O)[O-])c1
The solubility kinetic of the first is 3.5-fold higher: 38.9 µg/mL (≈ 144 µM) for the first, 11 µg/mL (≈ 34.7 µM) for the second.

First: Cc1cc(C)cc(OCC(=O)OCc2cc([N+](=O)[O-])cc3c2OCOC3)c1
Second: Cc1ccc(OCC(=O)N2CCc3ccccc3C2)c([N+](=O)[O-])n1
The solubility kinetic of the first is lower: 3.9 µg/mL (≈ 10.4 µM) for the first, over 49.1 µg/mL for the second.

`CCOc1ccc(C(=S)N2CCCC2)cc1OCC` and `S=C(NCCc1ccccc1)N1CCCC1` cannot be ordered by solubility kinetic: 41.8 µg/mL (≈ 150 µM) for the first, over 35.2 µg/mL for the second.

First: Cc1cc(OCC(=O)N(C)C2CCCCC2)ccc1Cl
Second: O=C(Cn1c(=O)oc2ccc(Cl)cc21)NC1CCCCC1
The solubility kinetic of the first is 12-fold higher: 35.5 µg/mL (≈ 120 µM) for the first, 2.9 µg/mL (≈ 9.39 µM) for the second.

`C/C(=N\NC(=O)c1ccncc1)c1cccnc1` and `Cc1c(C(=O)NNC(=O)c2cccnc2)cccc1[N+](=O)[O-]` cannot be ordered by solubility kinetic: over 36 µg/mL for the first, over 45 µg/mL for the second.

Going from `CCOCCCNc1c(CC)c(C)c(C#N)c2nc3ccccc3n12` to `CCOc1ccc2nc(SCC(=O)NCc3ccccc3)[nH]c2c1`, the solubility kinetic rises from 6.5 µg/mL (≈ 19.3 µM) to 44.3 µg/mL (≈ 130 µM) (6.8-fold).

`COc1ccc(Oc2cccc(Cl)c2CNC(=O)CCC(=O)O)cc1` and `CC(=O)c1ccc(OCCCC(=O)NCCc2ccccc2)cc1` are within 1.5-fold of each other in solubility kinetic: 49.5 µg/mL (≈ 136 µM) for the first, 38.8 µg/mL (≈ 119 µM) for the second.

First: CN1CCN(S(=O)(=O)c2ccc(NC(=O)c3cccc(F)c3)cc2)CC1
Second: CCN(CC(=O)Nc1ccc(S(=O)(=O)N2CCCC2)cc1)CC(=O)Nc1ccccc1C(F)(F)F
The solubility kinetic of the first is higher: over 56.6 µg/mL for the first, 21.2 µg/mL (≈ 41.4 µM) for the second.

Going from `COCCNc1ccc(N2C(=O)C3CCCCC3C2=O)cc1[N+](=O)[O-]` (centres undefined) to `COc1ccc(CCNC(=O)CCC(=O)NC2CCCCC2)cc1OC`, the solubility kinetic rises from 50.8 µg/mL (≈ 146 µM) to over 54.4 µg/mL.

Compared with `COc1ccc(C/C(N)=N/OC(=O)c2cccs2)cc1`, `COc1ccc(CNC(=O)Cc2cccs2)cc1OC` is 5.7-fold higher in solubility kinetic: 7.5 µg/mL (≈ 25.8 µM) for the first, 42.6 µg/mL (≈ 146 µM) for the second.

`O=C(O)c1ccc(S(=O)(=O)NC2CC2)cc1` and `N#C/C(=C\c1ccccc1)C(=O)NC1CC1` cannot be ordered by solubility kinetic: over 36.2 µg/mL for the first, over 31.8 µg/mL for the second.

First: CCc1ccc(N2CC(C)Cn3c2nc2c3c(=O)[nH]c(=O)n2C)cc1 (centres undefined)
Second: COc1ccc2c(c1)CCCC21NC(=O)N(CC(=O)N2CC(C)OC(C)C2)C1=O (centres undefined)
The solubility kinetic of the first is lower: 7.3 µg/mL (≈ 21.5 µM) for the first, over 60.2 µg/mL for the second.

`Cc1ccc2nc(NC(=O)COC(=O)c3ccccn3)sc2c1` and `Cc1cccc(NC(=O)COc2cccc3c2CCN(C)C3=O)c1` are within 1.5-fold of each other in solubility kinetic: 32.1 µg/mL (≈ 98.1 µM) for the first, 41.9 µg/mL (≈ 129 µM) for the second.

Compared with `CCN1C(=O)CC(N2CCC(C(=O)N3CCCCCC3)CC2)C1=O` (centres undefined), `O=C(C1CC1)N1CCN(c2ccc(F)cc2)CC1` is lower in solubility kinetic: over 50.3 µg/mL for the first, 34.7 µg/mL (≈ 140 µM) for the second.

Going from `CC(C)(C)NC(=O)COC(=O)c1ccccc1C(=O)c1ccccc1` to `O=C1OC(C(=O)Nc2ccccc2)Cc2ccccc21` (centres undefined), the solubility kinetic falls from 43.4 µg/mL (≈ 128 µM) to 10.9 µg/mL (≈ 40.8 µM) (4-fold).

Compared with `N=C1C=CC=C2C1=NC1(CCCCC1)N2O`, `O=C(NCc1ccccc1)C1(c2cccc(F)c2)CCCC1` is lower in solubility kinetic: over 32.6 µg/mL for the first, 12.2 µg/mL (≈ 41 µM) for the second.

First: COc1ccc(Cl)cc1NC(=S)Nc1cccnc1
Second: Cc1ccc(Cl)cc1Nc1nc(-c2cccnc2)cs1
The solubility kinetic of the first is 190-fold higher: 38.1 µg/mL (≈ 130 µM) for the first, 0.2 µg/mL (≈ 0.663 µM) for the second.

Compared with `COc1ccccc1-n1c(O)c(/C=C2\C=Nc3ccccc32)c(=O)[nH]c1=O`, `C=CCC(Nc1ccccc1)c1cccc(OC)c1OC` (centres undefined) is 2.5-fold higher in solubility kinetic: 4.4 µg/mL (≈ 12.2 µM) for the first, 10.8 µg/mL (≈ 38.1 µM) for the second.

`COC(=O)c1ccc(N2CCN(C(C)=O)CC2)c(NC(=O)c2cccnc2)c1` and `CC1(C)C(C(=O)N2CCN(C(=O)c3ccccc3)CC2)C1(C)C` cannot be ordered by solubility kinetic: over 57.4 µg/mL for the first, over 47.2 µg/mL for the second.

`COc1cc(OC)cc(C(=O)Nc2ccc(CN3CCCCC3)cc2)c1` and `COc1cc(CNC(=O)c2cnc(C)cn2)cc(OC)c1` cannot be ordered by solubility kinetic: 49.2 µg/mL (≈ 139 µM) for the first, over 43.1 µg/mL for the second.

`COc1ccc2nc3c(nc2c1)CCCC3` and `COc1ccccc1CNC(=O)C1CCCC1` cannot be ordered by solubility kinetic: over 32.1 µg/mL for the first, over 35 µg/mL for the second.

Going from `CCCc1cc(=O)oc2c(CN(CC)CC)c(O)c(Cl)cc12` to `CSCc1c(C(=O)Nc2ccc3c(c2)OCO3)oc2ccccc12`, the solubility kinetic falls from over 48.6 µg/mL to 6.4 µg/mL (≈ 18.7 µM).

Going from `CC(C)c1nc2sc3c(c2c(=O)[nH]1)CC(C)(C)OC3` to `CC(C)c1nc2sc3c(=O)[nH]c(=S)[nH]c3c2c2c1CCCC2`, the solubility kinetic rises from 6.4 µg/mL (≈ 23 µM) to 45.9 µg/mL (≈ 138 µM) (7.2-fold).

First: O=C(COC(=O)c1ccc([N+](=O)[O-])s1)c1ccc[nH]1
Second: O=C(Nc1cccnc1)c1ccc([N+](=O)[O-])s1
The solubility kinetic of the first is 2.3-fold higher: 22.5 µg/mL (≈ 80.3 µM) for the first, 9.9 µg/mL (≈ 39.7 µM) for the second.

First: O=C1SCCC1NC(=O)C(c1ccccc1)c1ccccc1 (centres undefined)
Second: O=C(NC1CCC(c2ccccc2)CC1)c1cccnc1 (centres undefined)
The solubility kinetic of the first is higher: over 46.7 µg/mL for the first, 4.3 µg/mL (≈ 15.3 µM) for the second.

`O=C(Cc1ccccc1)NCC(=O)N/N=C/c1cccnc1` and `Cc1ccc(C(=O)NCCCNC(=O)COc2ccccc2Cl)cn1` cannot be ordered by solubility kinetic: over 44.4 µg/mL for the first, over 54.3 µg/mL for the second.

Compared with `Cc1ccc(C(=O)NCc2ccc3c(c2)OCO3)cc1C`, `CSc1cc(C)c(OCC(=O)Nc2ccc(NC(C)=O)cc2)c(C)c1` is 7.2-fold lower in solubility kinetic: 31.7 µg/mL (≈ 112 µM) for the first, 4.4 µg/mL (≈ 12.3 µM) for the second.

First: NC(=O)c1cccc(NC(=O)Nc2ccc(Cl)cc2)c1
Second: COC(=O)Nc1cc(C(=O)c2ccc(Cl)cc2Cl)c[nH]1
The solubility kinetic of the first is 9.5-fold lower: 4.6 µg/mL (≈ 15.9 µM) for the first, 43.6 µg/mL (≈ 139 µM) for the second.

`OCc1nc2c(ccc3ccccc32)[nH]1` and `c1cncc(CNc2nc(-c3cccnc3)nc3ccccc23)c1` cannot be ordered by solubility kinetic: over 29.7 µg/mL for the first, over 47 µg/mL for the second.

Compared with `CC1(C)CC(NC(=S)Nc2ccc([N+](=O)[O-])cc2)CC(C)(C)N1`, `Cc1ccc(NC(=O)NCC2CC2(Cl)Cl)cc1` (centres undefined) is 4.6-fold lower in solubility kinetic: 42.1 µg/mL (≈ 125 µM) for the first, 9.1 µg/mL (≈ 33.3 µM) for the second.

First: CN(CCOc1ccccc1)CCOc1ccccc1
Second: CN(c1ccccc1)S(=O)(=O)c1ccc2ccccc2c1
The solubility kinetic of the first is 14-fold higher: 32.8 µg/mL (≈ 121 µM) for the first, 2.4 µg/mL (≈ 8.07 µM) for the second.

Compared with `CC1CN(C(=O)CCS(=O)(=O)c2ccccc2)CC(C)O1` (centres undefined), `O=C(OCC(=O)N1CCc2ccccc21)[C@@H]1CC(O)CN1S(=O)(=O)c1ccccc1[N+](=O)[O-]` (some centres undefined) is 2.1-fold lower in solubility kinetic: 43.2 µg/mL (≈ 139 µM) for the first, 20.4 µg/mL (≈ 42.9 µM) for the second.

`O=[N+]([O-])c1cccc2c(N3CCCC3)ccnc12` and `Nc1cc(=O)[nH]c(SCC(=O)Nc2cccc(S(=O)(=O)N3CCCCC3)c2)n1` cannot be ordered by solubility kinetic: over 36.5 µg/mL for the first, over 63.5 µg/mL for the second.

Going from `CN1CC(=O)N=C1N.Cl` to `CCn1c2ccccc2c2cc(NC(=O)c3ccc(=O)oc3)ccc21`, the solubility kinetic falls from over 22.4 µg/mL to 1.2 µg/mL (≈ 3.61 µM).

First: O=C1NC(=Nc2ccc(O)cc2)S/C1=C\C=C\c1ccco1
Second: Cc1nc(-c2ccc(NC(=O)c3ccco3)cc2)cs1
The solubility kinetic of the first is 3.9-fold lower: 4.7 µg/mL (≈ 15 µM) for the first, 18.2 µg/mL (≈ 64 µM) for the second.

`COc1ccccc1NC(=O)c1cnc(SC)nc1` and `CC(=O)c1ccc(NC(=O)CSc2nccn2C)cc1` cannot be ordered by solubility kinetic: over 41.3 µg/mL for the first, over 43.4 µg/mL for the second.

First: Cc1cc(C(=O)Nc2ccc(N3CCOCC3)c(Cl)c2)c(C)o1
Second: Cc1cnc(C(=O)OCC(=O)Nc2cc(S(=O)(=O)N3CCOCC3)ccc2Cl)cn1
The solubility kinetic of the first is lower: 45.6 µg/mL (≈ 136 µM) for the first, over 68.2 µg/mL for the second.

Going from `CC(C)N(Cc1nc(COc2ccccc2)no1)Cc1nccn1C` to `CN(C)CCCNC(=O)N1c2ccccc2Sc2ccccc21`, the solubility kinetic rises from 48.2 µg/mL (≈ 141 µM) to over 49.1 µg/mL.

`Nc1cc(N)nc(SCC(=O)NCC(=O)Nc2ccc(F)c(F)c2F)n1` and `CCC1(CC)NC(=O)N(CC(=O)Nc2ccc(C)cc2C)C1=O` cannot be ordered by solubility kinetic: 51.3 µg/mL (≈ 133 µM) for the first, over 47.6 µg/mL for the second.

`CC1CCCCC1NC(=O)COc1ccccc1C#N` (centres undefined) and `CN(C(=O)COC(=O)Cc1ccccc1[N+](=O)[O-])C1CCS(=O)(=O)C1` (centres undefined) cannot be ordered by solubility kinetic: over 40.9 µg/mL for the first, over 55.6 µg/mL for the second.

First: Cc1cc(C)c(NC(=O)C2CCN(C(=O)c3ccco3)CC2)c(C)c1
Second: COc1cc(C#N)c(NC(=O)CN2CCC(C(N)=O)CC2)cc1OC
The solubility kinetic of the first is lower: 44.2 µg/mL (≈ 130 µM) for the first, over 52 µg/mL for the second.

Compared with `O=C(O)Cc1sc(NCc2ccco2)nc1-c1ccccc1`, `O=C(CN1CCc2cc3c(cc2C1)OCCCO3)Nc1ccccc1` is 11-fold lower in solubility kinetic: 46.8 µg/mL (≈ 149 µM) for the first, 4.4 µg/mL (≈ 13 µM) for the second.
